The text below walks through data of patent US11702427B2 (priority 2018, dated 2023).

The first test has as its system HBsAg. The test can be described thus: HBsAg assay: inhibition of HBsAg in HepG2.2.15 cells (CLIA immunoassay of supernatant). Conditions: Hepatitis B virus, HepG2.2.15, 144 h, read-out: sAg EC50, HepG2.2.15 cells; supernatant collected at day 6 after exposure; HBsAg chemiluminescence immunoassay. It is filed as cell-based, hepatitis B virus (HBV). The procedure: Inhibition of HBsAg was determined in HepG2.2.15 cells. Cells were maintained in culture medium containing 10% fetal calf serum, […], Glutamine, penicillin/streptomycin. Cells were seeded in 96-well collagen-coated plate at a density of 30,000 cells/well. Serially diluted compounds were added to cells next day at the final DMSO concentration of 0.5%. Cells were incubated with compounds for 2-3 days, after which medium was removed. Fresh medium containing compounds was added to cells for additional 3-4 days. At day 6 after exposure of compounds, supernatant was collected, the HBsAg immunoassay (microplate-based chemiluminescence immunoassay kits, CLIA, Autobio Diagnosics Co., Zhengzhou, China, Catalog #CL0310-2) was used to determine the level of HBsAg according to manufactory instruction. Dose-response curves were generated and the EC50 value (effective concentrations that achieved 50% inhibitory effect) were determined using XLfit software. In addition, cells can be seeded at a density of 5,000 cells/well for determination of cell viability in the presence and absence of compounds by using CellTiter-Glo reagent (Promega). Tables 1-3 show EC50 values obtained by the HBsAg assay for selected compounds.
Usually EC50 stands for the concentration at which the effect is half-maximal. In the case of `COCCCOc1cc2c(cc1OC)-c1[nH]c(=O)c(C(=O)O)cc1C(C)(C(C)C)C2` (stereo not drawn) [Example 6, 5-Isopropyl-9-methoxy-8-(3-methoxypropoxy)-5-methyl-2-oxo-1,6-dihydrobenzo[h]quinoline-3-carboxylic acid], the EC50 came out at 44 nM.

Consider `COCCCOc1cc2c(cc1OC)-c1[nH]c(=O)c(-c3ncn[nH]3)c(O)c1C(C(C)C)C2` (stereo not drawn) [Example 57, 4-Hydroxy-5-isopropyl-9-methoxy-8-(3-methoxypropoxy)-3-(1H-1,2,4-triazol-5-yl)-5,6-dihydrobenzo[h]quinolin-2(1H)-one], for which the EC50 turned out to be 11 nM.

For the molecule `CCCc1nc2c(cc1OCCCOC)CC(C(C)C)c1c-2[nH]c(=O)c(C(=O)O)c1O` (stereo not drawn) [Example 50, 4-Hydroxy-5-isopropyl-8-(3-methoxypropoxy)-2-oxo-9-propyl-1,2,5,6-tetrahydro-1,10-phenanthroline-3-carboxylic acid], the EC50 was 2 nM.

As for `COCCCOc1cc2c(cc1OC)-c1[nH]c(=O)c(C(=O)NO)c(O)c1C(C(C)C)C2` (stereo not drawn) [Example 66, N,4-Dihydroxy-5-isopropyl-9-methoxy-8-(3-methoxypropoxy)-2-oxo-1,2,5,6-tetrahydrobenzo[h]quinoline-3-carboxamide], the EC50 was found to be 41 nM.

For the molecule `COCCCOc1cc2c(nc1OC)-c1nc(Cl)c(C(=O)O)c(Cl)c1C(C(C)(C)C)C2` (stereo not drawn) [Example 68, 5-(tert-Butyl)-2,4-dichloro-9-methoxy-8-(3-methoxypropoxy)-5,6-dihydro-1,10-phenanthroline-3-carboxylicacid], the concentration for a half-maximal effect (EC50) came out at 10000 nM.

On to `COCCCOc1cc2c(nc1Cl)-c1[nH]c(=O)c(C(=O)O)c(O)c1C(C(C)(C)C)C2` (stereo not drawn) [Example 29, 5-(tert-Butyl)-9-chloro-4-hydroxy-8-(3-methoxypropoxy)-2-oxo-1,2,5,6-tetrahydro-1,10-phenanthroline-3-carboxylicacid], for which the EC50 was determined as 1 nM.

Consider `COCCCOc1cc2c(cc1OC)-c1nc(Cl)c(C(=O)O)c(Cl)c1C(C(C)C)C2` (stereo not drawn) [Example 21, 2,4-Dichloro-5-isopropyl-9-methoxy-8-(3-methoxypropoxy)-5,6-dihydrobenzo[h]quinoline-3-carboxylic acid], for which the EC50 came out at 150 nM.

Consider `COCCCOc1cc2c(cc1CCOC)-c1[nH]c(=O)c(C(=O)O)c(O)c1[C@H](C(C)C)CO2` [Example 72, (S)-4-Hydroxy-5-isopropyl-10-(2-methoxyethyl)-9-(3-methoxypropoxy)-2-oxo-1,2,5,6-tetrahydrobenzo[2,3]oxepino[4,5-b]pyridine-3-carboxylic acid], for which the EC50 is 600 nM.

On to `COCCCOc1cc2c(cc1OC)-c1[nH]c(=O)c(C(=O)O)c(OC)c1C(C(C)C)C2` (stereo not drawn) [Example 87, 5-Isopropyl-4,9-dimethoxy-8-(3-methoxypropoxy)-2-oxo-1,2,5,6-tetrahydrobenzo[h]quinoline-3-carboxylicacid], for which the EC50 came out at 85 nM.

Regarding `COCCCOc1cc2c(cc1OC)-c1[nH]c(=O)c(C(N)=O)c(O)c1C(C(C)C)C2` (stereo not drawn) [Example 58, 4-Hydroxy-5-isopropyl-9-methoxy-8-(3-methoxypropoxy)-2-oxo-1,2,5,6-tetrahydrobenzo[h]quinoline-3-carboxamide], the EC50 is 20 nM.

As for `COCCCOc1cc2c(cc1OC)-c1[nH]c(=O)c(C(=O)O)cc1C1(CCCCC1)C2` [Example 73, 9-Methoxy-8-(3-methoxypropoxy)-2-oxo-2,6-dihydro-1H-spiro[benzo[h]quinoline-5,1′-cyclohexane]-3-carboxylic acid], the 50% effective concentration (EC50) stood at 110 nM.

`COCCCOc1cc2c(nc1CCOC)-c1[nH]c(=O)c(C(=O)O)c(O)c1C(C(C)C)CO2` (stereo not drawn) [Example 84, 8-Hydroxy-7-isopropyl-2-(2-methoxyethyl)-3-(3-methoxypropoxy)-10-oxo-6,7,10,11-tetrahydrooxepino[3,2-b:4,5-b′]dipyridine-9-carboxylic acid]: the EC50 was found to be 1200 nM.

Regarding `CNc1nc2c(cc1OCCCOC)CC(C(C)C)c1cc(C(=O)O)c(=O)[nH]c1-2` (stereo not drawn) [Example 55, 5-Isopropyl-8-(3-methoxypropoxy)-9-(methylamino)-2-oxo-1,2,5,6-tetrahydro-1,10-phenanthroline-3-carboxylicacid], the EC50 was determined as 2 nM.

`COCCCOc1cc2c(cc1OC)-c1[nH]c(=O)c(C(=O)O)c(O)c1C(C)(C(C)C)C2` (stereo not drawn) [Example 30, 4-Hydroxy-5-isopropyl-9-methoxy-8-(3-methoxypropoxy)-5-methyl-2-oxo-1,2,5,6-tetrahydrobenzo[h]quinoline-3-carboxylic acid]: the EC50 amounted to 58 nM.

Consider `COCCCOc1cc2c(nc1NCCOC)-c1[nH]c(=O)c(C(=O)O)c(O)c1C(C(C)C)C2` (stereo not drawn) [Example 51, 4-Hydroxy-5-isopropyl-9-((2-methoxyethyl)amino)-8-(3-methoxypropoxy)-2-oxo-1,2,5,6-tetrahydro-1,10-phenanthroline-3-carboxylicacid], for which the EC50 stood at 10000 nM.

The same test, now with this note: read-out: sAg EC50; HepG2.2.15 cells; supernatant collected at day 6 after exposure; HBsAg chemiluminescence immunoassay.
Regarding `COCCCOc1cc2c(nc1C1CC1)-c1[nH]c(=O)c(C(=O)O)c(O)c1C(C(C)(C)C)CO2` (single isomer, unassigned) [Example 83, 7-(tert-Butyl)-2-cyclopropyl-8-hydroxy-3-(3-methoxypropoxy)-10-oxo-6,7,10,11-tetrahydrooxepino[3,2-b:4,5-b′]dipyridine-9-carboxylic acid], the EC50 turned out to be 15 nM.

`COCCCOc1cc2c(nc1Cl)-c1[nH]c(=O)c(C(=O)O)c(O)c1C(C(C)C)CO2` (single isomer, unassigned) [Example 75, 2-Chloro-8-hydroxy-7-isopropyl-3-(3-methoxypropoxy)-10-oxo-6,7,10,11-tetrahydrooxepino[3,2-b:4,5-b′]dipyridine-9-carboxylic acid]: the EC50 was determined as 22 nM.

In the case of `COCCCOc1cc2c(nc1Cl)-c1[nH]c(=O)c(C(=O)O)c(O)c1C(C(C)(C)C)CO2` (single isomer, unassigned) [Example 78, 7-(tert-Butyl)-2-chloro-8-hydroxy-3-(3-methoxypropoxy)-10-oxo-6,7,10,11-tetrahydrooxepino[3,2-b:4,5-b′]dipyridine-9-carboxylicacid], the EC50 turned out to be 6000 nM.

Regarding `COCCCOc1cc2c(nc1Cl)-c1[nH]c(=O)c(C(=O)O)c(O)c1C(C(C)C)CO2` (single isomer, unassigned) [Example 76, 2-Chloro-8-hydroxy-7-isopropyl-3-(3-methoxypropoxy)-10-oxo-6,7,10,11-tetrahydrooxepino[3,2-b:4,5-b′]dipyridine-9-carboxylic acid], the EC50 was 560 nM.

For `COCCCOc1cc2c(cc1Cl)-c1[nH]c(=O)c(C(=O)O)cc1C(C)(C(C)C)C2` (single isomer, unassigned) [Example 11, 9-Chloro-5-isopropyl-8-(3-methoxypropoxy)-5-methyl-2-oxo-1,6-dihydrobenzo[h]quinoline-3-carboxylic acid], the EC50 was found to be 250 nM.

Turning to `COCCCOc1cc2c(cc1Cl)-c1[nH]c(=O)c(C(=O)O)c(O)c1C(C)(C(C)C)C2` (single isomer, unassigned) [Example 15, 9-Chloro-4-hydroxy-5-isopropyl-8-(3-methoxypropoxy)-5-methyl-2-oxo-1,2,5,6-tetrahydrobenzo[h]quinoline-3-carboxylic acid], the EC50 is 18 nM.

Turning to `COCCCOc1cc2c(cc1OC)-c1[nH]c(=O)c(C(=O)O)cc1C(C(C)C)C2` (single isomer, unassigned) [Example 2, 5-Isopropyl-9-methoxy-8-(3-methoxypropoxy)-2-oxo-1,2,5,6-tetrahydrobenzo[h]quinoline-3-carboxylic acid], the EC50 stood at 11 nM.

Regarding `COCCCOc1cc2c(nc1OC)-c1[nH]c(=O)c(C(=O)O)c(O)c1C(C(C)C)C2` (single isomer, unassigned) [Example 35, 4-Hydroxy-5-isopropyl-9-methoxy-8-(3-methoxypropoxy)-2-oxo-1,2,5,6-tetrahydro-1,10-phenanthroline-3-carboxylic acid], the EC50 was found to be 150 nM.

Consider `COCCCOc1cc2c(nc1OC)-c1[nH]c(=O)c(C(=O)O)cc1C(C(C)C)C2` (single isomer, unassigned) [Example 44, 5-Isopropyl-9-methoxy-8-(3-methoxypropoxy)-2-oxo-1,2,5,6-tetrahydro-1,10-phenanthroline-3-carboxylic acid], for which the EC50 was found to be 2 nM.

As for `COCCCOc1cc2c(cc1OC)-c1[nH]c(=O)c(C(=O)O)cc1C(C(C)C)C2` (single isomer, unassigned) [Example 3, 5-Isopropyl-9-methoxy-8-(3-methoxypropoxy)-2-oxo-1,2,5,6-tetrahydrobenzo[h]quinoline-3-carboxylic acid], the EC50 was found to be 2000 nM.

As for `COCCCOc1cc2c(nc1Cl)-c1[nH]c(=O)c(C(=O)O)c(O)c1C(C(C)C)C2` (single isomer, unassigned) [Example 27, 9-Chloro-4-hydroxy-5-isopropyl-8-(3-methoxypropoxy)-2-oxo-1,2,5,6-tetrahydro-1,10-phenanthroline-3-carboxylic acid], the EC50 was 2 nM.

For `COCCCOc1cc2c(nc1Cl)-c1[nH]c(=O)c(C(=O)O)c(O)c1C(C(C)(C)C)CO2` (single isomer, unassigned) [Example 77, 7-(tert-Butyl)-2-chloro-8-hydroxy-3-(3-methoxypropoxy)-10-oxo-6,7,10,11-tetrahydrooxepino[3,2-b:4,5-b′]dipyridine-9-carboxylic acid], the EC50 came to 6 nM.
